A value given as a limit tells only on which side of the number the result lay.

The subject of the experiment is HCV genotype 1b replicon. The experiment can be described thus: HCV replicon assay (HCV 1b_Huh-Luc/Neo-ET cell line, luciferase readout). It counts as cell-based. The note with it: Hepatitis C virus; bicistronic genotype 1b replicon in Huh 7 cells, 72 h incubation, luciferase enzyme activity; read-out: Inhibition of HCV genotype 1b. The procedure:
Biological activity of the compounds of the invention was determined using an HCV replicon assay. The HCV 1b_Huh-Luc/Neo-ET cell line persistently expressing a bicistronic genotype 1b replicon in Huh 7 cells was obtained from ReBLikon GMBH. This cell line was used to test compound inhibition using luciferase enzyme activity readout as a measurement of compound inhibition of replicon levels.
On Day 1 (the day after plating cells), each compound is added in triplicate to the cells. Plates are incubated for 72 h prior to determining luciferase levels. Enzyme activity was measured using a Bright-Glo Kit (cat. number E2620) manufactured by Promega Corporation. The following equation was used to generate a percent control value for each compound.
% Control=(Average Compound Value/Average Control)*100
The EC50 value was determined using GraphPad Prism and the following equation:
Y=Bottom+(Top−Bottom)/(1+10̂((LogIC50−X)*HillSlope))
EC50 values of compounds are determined several times in the replicon assay. […]
Regarding `C[C@@H](NC(=O)[C@@H]1CCCN1C(=O)[C@H](NC(=O)C1CC1)c1ccccc1)c1ccc(-c2ccc(-c3cnc([C@@H]4CCCN4C(=O)[C@H](NC(=O)C4CC4)c4ccccc4)[nH]3)cc2)cc1` [Compound 40], the EC50 was less than 1 nM.
Consider `C[C@@H](NC(=O)[C@@H]1CCCN1C(=O)[C@H](NC(=O)N1CCOCC1)c1ccccc1)c1ccc(-c2ccc(-c3cnc([C@@H]4CCCN4C(=O)[C@H](NC(=O)N4CCOCC4)c4ccccc4)[nH]3)cc2)cc1` [Compound 41], for which the EC50 was in the range of 1 to 9.9 nM.
Then `C[C@@H](NC(=O)[C@@H]1CCCN1C(=O)[C@H](NC(=O)N1CCN(C)CC1)c1ccccc1)c1ccc(-c2ccc(-c3cnc([C@@H]4CCCN4C(=O)[C@H](NC(=O)N4CCN(C)CC4)c4ccccc4)[nH]3)cc2)cc1` [Compound 42], with 1 to 9.9 nM; and `O=C(N[C@@H](C(=O)N1CCC[C@H]1C(=O)NCc1ccc(-c2ccc(-c3cnc([C@@H]4CCCN4C(=O)[C@H](NC(=O)C4CC4)c4ccccc4)[nH]3)cc2)cc1)c1ccccc1)C1CC1` [Compound 43], with less than 1 nM.
On to `O=C(NCc1ccc(-c2ccc(-c3cnc([C@@H]4CCCN4C(=O)[C@H](NC(=O)N4CCOCC4)c4ccccc4)[nH]3)cc2)cc1)[C@@H]1CCCN1C(=O)[C@H](NC(=O)N1CCOCC1)c1ccccc1` [Compound 44], for which the EC50 lay in the range of 1 to 9.9 nM.
Consider `CN1CCN(C(=O)N[C@@H](C(=O)N2CCC[C@H]2C(=O)NCc2ccc(-c3ccc(-c4cnc([C@@H]5CCCN5C(=O)[C@H](NC(=O)N5CCN(C)CC5)c5ccccc5)[nH]4)cc3)cc2)c2ccccc2)CC1` [Compound 45], for which the EC50 was in the range of 1 to 9.9 nM.
As to `CC(C)(C)OC(=O)N[C@@H](C(=O)N1CCC[C@H]1c1ncc(-c2ccc(Sc3ccc(-c4cnc([C@@H]5CCCN5C(=O)[C@H](NC(=O)OC(C)(C)C)c5ccccc5)[nH]4)cc3)cc2)[nH]1)c1ccccc1` [Compound 46], the EC50 is less than 1 nM.
Then `C[C@@H](NC(=O)OC(C)(C)C)C(=O)N1CCC[C@H]1c1ncc(-c2ccc(Oc3ccc(-c4cnc([C@@H]5CCCN5C(=O)[C@@H](C)NC(=O)OC(C)(C)C)[nH]4)cc3)cc2)[nH]1` [Compound 47], with 1 to 9.9 nM.
Under `CC(C)[C@@H](NC(=O)OC(C)(C)C)C(=O)N1CCC[C@H]1c1ncc(-c2ccc(Oc3ccc(-c4cnc([C@@H]5CCCN5C(=O)[C@H](NC(=O)OC(C)(C)C)C(C)C)[nH]4)cc3)cc2)[nH]1` [Compound 48] stands 1 to 9.9 nM; under `CC(C)(C)OC(=O)N[C@@H](C(=O)N1CCC[C@H]1CNC(=O)c1ccc(-c2ccc(-c3cnc([C@@H]4CCCN4C(=O)[C@H](NC(=O)OC(C)(C)C)c4ccccc4)[nH]3)cc2)cc1)c1ccccc1` [Compound 49], less than 1 nM.
For the molecule `O=C(N[C@@H](C(=O)N1CCC[C@H]1c1ncc(-c2ccc(Sc3ccc(-c4cnc([C@@H]5CCCN5C(=O)[C@H](NC(=O)C5CC5)c5ccccc5)[nH]4)cc3)cc2)[nH]1)c1ccccc1)C1CC1` [Compound 50], the EC50 was less than 1 nM.
Regarding `O=C(N[C@@H](C(=O)N1CCC[C@H]1c1ncc(-c2ccc(Sc3ccc(-c4cnc([C@@H]5CCCN5C(=O)[C@H](NC(=O)N5CCOCC5)c5ccccc5)[nH]4)cc3)cc2)[nH]1)c1ccccc1)N1CCOCC1` [Compound 51], the EC50 was less than 1 nM.
As for `CC(C)(C)OC(=O)N[C@@H](C(=O)N1CCC[C@H]1c1ncc(-c2ccc(Oc3ccc(-c4cnc([C@@H]5CCCN5C(=O)[C@H](NC(=O)OC(C)(C)C)c5ccccc5)[nH]4)cc3)cc2)[nH]1)c1ccccc1` [Compound 52], the EC50 was less than 1 nM.
Consider `CC(C)[C@@H](NC(=O)C1CC1)C(=O)N1CCC[C@H]1c1ncc(-c2ccc(Oc3ccc(-c4cnc([C@@H]5CCCN5C(=O)[C@H](NC(=O)C5CC5)C(C)C)[nH]4)cc3)cc2)[nH]1` [Compound 53], for which the EC50 was in the range of 1 to 9.9 nM.
With `O=C(N[C@@H](C(=O)N1CCC[C@H]1c1ncc(-c2ccc(Oc3ccc(-c4cnc([C@@H]5CCCN5C(=O)[C@H](NC(=O)C5CC5)c5ccccc5)[nH]4)cc3)cc2)[nH]1)c1ccccc1)C1CC1` [Compound 54], the EC50 was less than 1 nM.
For `O=C(NC[C@@H]1CCCN1C(=O)[C@H](NC(=O)C1CC1)c1ccccc1)c1ccc(-c2ccc(-c3cnc([C@@H]4CCCN4C(=O)[C@H](NC(=O)C4CC4)c4ccccc4)[nH]3)cc2)cc1` [Compound 55], the EC50 was less than 1 nM.
Under `O=C(NC[C@@H]1CCCN1C(=O)[C@H](NC(=O)N1CCOCC1)c1ccccc1)c1ccc(-c2ccc(-c3cnc([C@@H]4CCCN4C(=O)[C@H](NC(=O)N4CCOCC4)c4ccccc4)[nH]3)cc2)cc1` [Compound 56] stands less than 1 nM.
For `CN1CCN(C(=O)N[C@@H](C(=O)N2CCC[C@H]2CNC(=O)c2ccc(-c3ccc(-c4cnc([C@@H]5CCCN5C(=O)[C@H](NC(=O)N5CCN(C)CC5)c5ccccc5)[nH]4)cc3)cc2)c2ccccc2)CC1` [Compound 57], the EC50 lay in the range of 1 to 9.9 nM.
Turning to `C[C@@H](NC(=O)C1CC1)C(=O)N1CCC[C@H]1c1ncc(-c2ccc(Oc3ccc(-c4cnc([C@@H]5CCCN5C(=O)[C@@H](C)NC(=O)C5CC5)[nH]4)cc3)cc2)[nH]1` [Compound 58], the EC50 lay in the range of 10 to 999 nM.
As for `COC(=O)N[C@@H](C(=O)N1CCC[C@H]1C(=O)Nc1ccc(-c2ccc(-c3cnc([C@@H]4CCCN4C(=O)[C@@H](c4ccccc4)N(C)C)[nH]3)cc2)cc1)c1ccccc1` [Compound 59], the EC50 is less than 1 nM.
Under `COC(=O)N[C@@H](C(=O)N1CCC[C@H]1c1ncc(-c2ccc(-c3ccc(NC(=O)[C@@H]4CCCN4C(=O)[C@@H](c4ccccc4)N(C)C)cc3)cc2)[nH]1)c1ccccc1` [Compound 60] stands less than 1 nM; under `COC(=O)N[C@@H](C(=O)N1CCC[C@H]1CNC(=O)c1ccc(-c2ccc(-c3cnc([C@@H]4CCCN4C(=O)[C@@H](c4ccccc4)N4CCCCC4)[nH]3)cc2)cc1)c1ccccc1` [Compound 61], less than 1 nM.
`COC(=O)N[C@@H](C(=O)N1CCC[C@H]1CNC(=O)c1ccc(-c2ccc(-c3cnc([C@@H]4CCCN4C(=O)[C@@H](c4ccccc4)N4CCOCC4)[nH]3)cc2)cc1)c1ccccc1` [Compound 62]: the EC50 was less than 1 nM.
In the case of `COC(=O)N[C@@H](C(=O)N1CCC[C@H]1c1ncc(-c2ccc(-c3ccc(C(=O)NC[C@@H]4CCCN4C(=O)[C@@H](c4ccccc4)N4CCOCC4)cc3)cc2)[nH]1)c1ccccc1` [Compound 63], the EC50 was less than 1 nM.
Then `COC(=O)N[C@@H](C(=O)N1CCC[C@H]1c1ncc(-c2ccc(-c3ccc(C(=O)NC[C@@H]4CCCN4C(=O)[C@@H](c4ccccc4)N4CCCCC4)cc3)cc2)[nH]1)c1ccccc1` [Compound 64], with less than 1 nM.
Then `COC(=O)N[C@@H](C(=O)N1CCC[C@H]1c1ncc(-c2ccc(-c3ccc(C(=O)NC[C@@H]4CCCN4C(=O)[C@@H](c4ccccc4)N(C)C)cc3)cc2)[nH]1)c1ccccc1` [Compound 65], with less than 1 nM; and `COC(=O)N[C@@H](C(=O)N1CCC[C@H]1c1ncc(-c2ccc(-c3ccc(C(=O)NC[C@@H]4CCCN4C(=O)[C@H](NC(=O)N4CCN(C)CC4)c4ccccc4)cc3)cc2)[nH]1)c1ccccc1` [Compound 66], with less than 1 nM; and `COC(=O)N[C@@H](C(=O)N1CCC[C@H]1c1ncc(-c2ccc(-c3ccc(C(=O)NC[C@@H]4CCCN4C(=O)[C@H](NC(=O)N4CCOCC4)c4ccccc4)cc3)cc2)[nH]1)c1ccccc1` [Compound 67], with less than 1 nM.
For the molecule `COC(=O)N[C@@H](C(=O)N1CCC[C@H]1CNC(=O)c1ccc(-c2ccc(-c3cnc([C@@H]4CCCN4C(=O)[C@H](NC(=O)N4CCN(C)CC4)c4ccccc4)[nH]3)cc2)cc1)c1ccccc1` [Compound 68], the EC50 was less than 1 nM.

Source of the values: US20120040977A1, “INHIBITORS OF HCV NS5A” (PRESIDIO PHARMACEUTICALS, INC., priority 2009, published 2012).
